Data from patent US5032597A, “Method of using phenylquinolinecarboxylic acids and derivatives for lymthoid leukemia treatment in a mammal” (priority 1987, dated 1991).
Converted amounts (≈) assume the structure as drawn. Like-named read-outs stand apart in the source and are kept apart here.

How the values were obtained:
[1] = test system: L1210 leukemia; experiment: Lymphoid Leukemia L1210, survival of tumored mice; type: in vivo, CD2F1 mice; conditions: for response vs control in vivo at 200 mg/kg: 200 mg/kg i.p.; for response vs control in vivo at 50 mg/kg: 50 mg/kg i.p.; for response vs control in vivo at 18 mg/kg: 18 mg/kg i.p.; for response vs control in vivo at 100 mg/kg: 100 mg/kg i.p.
Method: The efficacy of the compounds of this invention against the transplanted mouse tumors was evaluated in test systems currently in use at the National Cancer Institute for the detection and assessment of anticancer activity. […] J. Cancer, 17, 129-142, (1981); Venditti, J. M., Seminars in Oncology, 8 (4) (1981); Goldin, A. and J. M. Venditti, in Recent Results in Cancer Research, 70, S. K. Carter and Y. Sakurai, Eds., Springer-Verlag, Berlin/Heidelberg, 1980].
The animals used in this test were CD2 F1 mice, all males weighing a minimum of 18 g and all within a 4 g weight range at the start of the test. The test group consisted of six mice. The tumor was implanted in each of the test mice by the intraperitoneal injection of 0.1 ml of diluted ascitic fluid containing 10^5 cells drawn from a mouse with L1210 leukemia. The test compounds were suspended in hydroxypropylcellulose or saline with Tween® 80 surfactant or dissolved in saline and injected intraperitoneally, at various doses, once daily for nine consecutive days starting on day one relative to the day of tumor inoculation (day 0). The control mice received injections of saline or hydroxypropylcellulose vehicle only. The mice were weighed and survivors were recorded on a regular basis for 30 days. The median survival time and the ratio of the median survival time for the treated (T) and control (C) mice was calculated. […] Drug effectiveness was assessed on the basis of the survival time. Results were expressed as a percentage of the control survival time (Median Survival Time: T/C ×100%). The criterion for effectiveness was determined by: T/C×100≥125 percent.

[2] = test system: human colon carcinoma cells HCT-15; experiment: Human colon tumor test in vitro, HCT-15 cell growth inhibition; type: cell-based; conditions: HCT-15 cells, compound day 1 to day 4; for IC50: Homo sapiens, HCT-15, 72 h, read-out: in vitro HCT-15 ID50 (50 percent inhibition of number of doublings); for in vitro HCT-15 ID50 (50 percent inhibition of number of doublings): 4320 min
Method: The compound of this invention were also tested for their ability to inhibit the growth of human colon carcinoma cells in vitro.
The human colon carcinoma cells, designated HCT-15, were derived from a specimen of an adenocarcinoma of human colon removed during surgery. The cells were grown in Roswell Park Medical Institute (RPMI) Medium 1640 supplemented with 10% heat inactivated fetal calf serum, penicillin (100 units/ml), streptomycin (100 μg/ml), gentamicin (20 μg/ml), fungizone (25 μg/ml), 0.075 percent sodium bicarbonate, […] 4-(2-hydroxyethyl)-1-piperazineethanesulfonic acid and […] N-tris(hydroxymethyl)methylglycine. […] On day 1 cells from sample dishes were harvested using trypsin (0.25%) treatment and counted with a hemocytometer to determine the number of cells per dish at the time of the addition of the compounds. Compounds of this invention were added in varying concentrations to other cultures. On day 4, treated and control cultures were harvested by trypsin treatment and the number of cells was determined. The number of doublings for the control cells was determined from the cell numbers on days 1 and 4. The ID50, the concentration of compound required to inhibit by 50 percent the number of doublings, was then calculated from the dose-response curve in which cell numbers were plotted on log-log paper against compound concentrations in micrograms per ml.

[3] = Mus musculus, L1210, ip, 720 h, read-out: L1210 Leukemia % T/C (median survival time)
[4] = Mus musculus, L1210, ip, 720 h, 37.5 mg/kg i.p., nonoptimal Q1DX9 instead of Q3DX9, read-out: L1210 Leukemia % T/C (median survival time)

## Cc1c(-c2ccc(-c3ccccc3)cc2)nc2cc(Cl)ccc2c1C(=O)O [Example 49]
[1]; [3]
  response vs control in vivo at 200 mg/kg: 174%
[2]
  IC50: > 5 µg/mL

## Cc1c(-c2ccc(C3CCCCC3)cc2)nc2ccc(C(F)(F)F)cc2c1C(=O)O [Example 48]
[2]
  IC50: 0.1 µg/mL (≈ 0.242 µM)

## COc1ccc(-c2ccc(-c3nc4ccc(Cl)cc4c(C(=O)O)c3C)cc2)cc1 [Example 114]
[1]; Mus musculus, L1210, ip, 720 h, nonoptimal Q1DX9 instead of Q3DX9, read-out: L1210 Leukemia % T/C (median survival time)
  response vs control in vivo at 50 mg/kg: 121%
[2]
  in vitro HCT-15 ID50 (50 percent inhibition of number of doublings): 1.30 µg/mL

## CCc1cccc(-c2ccc(-c3nc4ccc(F)cc4c(C(=O)O)c3C)cc2)c1 [Example 41]
[2]
  IC50: 0.0079 µg/mL (≈ 0.0205 µM)

## Cc1c(-c2ccc(-c3ccc(F)cc3)cc2)nc2ccc(F)cc2c1C(=O)O [Example 121]
[1]; [3]
  response vs control in vivo at 18 mg/kg: 175%
[2]
  in vitro HCT-15 ID50 (50 percent inhibition of number of doublings): < 0.50 µg/mL

## CCc1c(-c2ccc(C(C)CC)cc2)nc2ccc(F)cc2c1C(=O)O (stereo not drawn) [Example 107]
[1]; Mus musculus, L1210, ip, 720 h, 25 mg/kg i.p., nonoptimal Q1DX9 instead of Q3DX9, read-out: L1210 Leukemia % T/C (median survival time)
  response vs control in vivo at 25 mg/kg: 116%
[2]
  in vitro HCT-15 ID50 (50 percent inhibition of number of doublings): 0.09 µg/mL

## CCN(CC)CCOC(=O)c1c(C)c(-c2ccc(-c3ccccc3F)cc2)nc2ccc(F)cc12 [Example 201]
[1]; [3]
  response vs control in vivo at 100 mg/kg: 175%
[2]
  IC50: > 1 µg/mL

## Cc1cc2c(C(=O)O)c(C)c(-c3ccc(-c4ccccc4)cc3)nc2cc1Cl [Example 148]
[1]; [4]
  response vs control in vivo at 37.5 mg/kg: 102%
[2]
  in vitro HCT-15 ID50 (50 percent inhibition of number of doublings): > 5.00 µg/mL

## Cc1c(-c2ccc(C3CCCCC3)cc2)nc2ccc(F)cc2c1C(=O)O [Example 169]
[2]
  in vitro HCT-15 ID50 (50 percent inhibition of number of doublings): 0.04 µg/mL

## Cc1c(-c2ccc(-c3ccc(F)cc3)cc2)nc2ccc(F)cc2c1C(=O)O [Example 31]
[1]; 37.5 mg/kg i.p.
  L1210 Leukemia % T/C (median survival time): 218%
[2]
  IC50: < 0.5 µg/mL

## CCc1c(-c2ccc(C3CCCCC3)cc2)nc2ccc(C)cc2c1C(=O)O [Example 15]
[1]; [3]
  response vs control in vivo at 200 mg/kg: 158%
[2]
  IC50: 0.28 µg/mL (≈ 0.75 µM)

## Cc1c(-c2ccc(-c3ccccc3)cc2)nc2cc(Cl)ccc2c1C(=O)O [Example 139]
[1]; [3]
  response vs control in vivo at 100 mg/kg: 146%
[2]
  in vitro HCT-15 ID50 (50 percent inhibition of number of doublings): < 5.00 µg/mL

## Cc1c(-c2ccc(C3CCCCC3)cc2)nc2ccc(Cl)cc2c1C(=O)O [Example 3]
[1]; Mus musculus, L1210, ip, 720 h, 400 mg/kg i.p., read-out: L1210 Leukemia % T/C (median survival time)
  response vs control in vivo at 400 mg/kg: 207%
[2]
  in vitro HCT-15 ID50 (50 percent inhibition of number of doublings): 0.50 µg/mL

## Cc1c(-c2ccc(-c3ccccc3F)cc2)nc2ccc(F)cc2c1C(=O)O [Example 28, 2-(2'-Fluoro-1,1'-biphenyl-4-yl)-6-fluoro-3-methyl4-quinolinecarboxylic acid]
[1]; [3]
  response vs control in vivo at 18 mg/kg: 174%
[2]
  IC50: < 0.5 µg/mL

## Cc1ccc2nc(-c3ccc(C4CCCCC4)cc3)c(C)c(C(=O)O)c2c1 [Example 96]
[1]; [4]
  response vs control in vivo at 37.5 mg/kg: 97%
[2]
  in vitro HCT-15 ID50 (50 percent inhibition of number of doublings): < 0.50 µg/mL

## Cc1ccc(-c2ccc(-c3nc4ccc(F)cc4c(C(=O)O)c3C)cc2)cc1C [Example 39]
[2]
  IC50: < 0.1 µg/mL

## Cc1c(-c2ccc(-c3ccccc3F)cc2)nc2ccc(F)c(Cl)c2c1C(=O)O [Example 84]
[2]
  IC50: < 0.1 µg/mL

## Cc1c(-c2ccc(-c3ccccc3)cc2)nc2cccc(Cl)c2c1C(=O)O [Example 80]
[2]
  IC50: < 0.5 µg/mL

## Cc1c(-c2ccc(C3CCCCC3)cc2)nc2c(Br)cc(Br)cc2c1C(=O)O [Example 46]
[2]
  IC50: 0.42 µg/mL (≈ 0.835 µM)

## Cc1c(-c2ccc(-c3ccccc3F)cc2)nc2ccc(Cl)cc2c1C(=O)O [Example 70]
[2]
  IC50: < 0.1 µg/mL

## Cc1c(-c2ccc(-c3ccccc3)cc2)nc2cc(Cl)c(Cl)cc2c1C(=O)O [Example 47]
[2]
  IC50: 3.2 µg/mL (≈ 7.84 µM)

## Cc1c(-c2ccc(-c3ccccc3)cc2)nc2cc(Cl)c(F)cc2c1C(=O)O [Example 61]
[1]; Mus musculus, L1210, ip, 720 h, 75 mg/kg i.p., read-out: L1210 Leukemia % T/C (median survival time)
  response vs control in vivo at 75 mg/kg: 160%

## Cc1c(-c2ccc(-c3ccccc3)cc2F)nc2ccc(F)cc2c1C(=O)O [Example 208]
[2]
  IC50: < 0.001 µg/mL

## Cc1c(-c2ccc(-c3ccc(Br)cc3)cc2)nc2ccc(F)cc2c1C(=O)O [Example 183]
[1]; Mus musculus, L1210, ip, 720 h, 22.5 mg/kg i.p., read-out: L1210 Leukemia % T/C (median survival time)
  response vs control in vivo at 22.5 mg/kg: 208%

## Cc1c(-c2ccc(-c3ccccc3)cc2)nc2cc(Cl)c(F)cc2c1C(=O)O [Example 151]
[1]; 75 mg/kg i.p.
  L1210 Leukemia % T/C (median survival time): 144%

## Cc1ccc(-c2ccc(-c3nc4ccc(F)cc4c(C(=O)O)c3C)cc2)cc1 [Example 120]
[1]; [3]
  response vs control in vivo at 100 mg/kg: 132%

## Cc1c(-c2ccc(-c3ccccc3F)cc2)nc2ccc(F)c(Cl)c2c1C(=O)O [Example 167]
[1]; Mus musculus, L1210, ip, 720 h, 12.5 mg/kg i.p., read-out: L1210 Leukemia % T/C (median survival time)
  response vs control in vivo at 12.5 mg/kg: 197%

## Cc1c(-c2ccc(-c3ccccc3)cc2)nc2ccc(F)c(Cl)c2c1C(=O)O [Example 164, Sodium 2-(4-Biphenylyl)-5-chloro-6-fluoro-3-methylquinoline-4-carboxylate]
[1]; Mus musculus, L1210, ip, 720 h, read-out: L1210 Leukemia % T/C (median survival time), 22.5 mg/kg i.p.
  response vs control in vivo at 22.5 mg/kg: 234%

## Cc1cc(-c2ccccc2)ccc1-c1nc2ccc(F)cc2c(C(=O)O)c1C [Example 68]
[1]; [3]
  response vs control in vivo at 100 mg/kg: 162%

## Cc1c(-c2ccc([S+]([O-])c3ccccc3)cc2)nc2ccc(F)cc2c1C(=O)O (stereo not drawn) [Example 124]
[1]; Mus musculus, L1210, ip, 720 h, 360 mg/kg i.p., read-out: L1210 Leukemia % T/C (median survival time)
  response vs control in vivo at 360 mg/kg: 184%

## Cc1c(-c2ccc(-c3ccccc3)cc2)nc2ccc(F)cc2c1C(=O)OCCN(C)C [Example 196]
[1]; [3]
  response vs control in vivo at 50 mg/kg: 205%

## Cc1c(-c2ccc(Oc3ccccc3)cc2)nc2ccc(Br)cc2c1C(=O)O [Example 143]
[1]; Mus musculus, L1210, ip, 720 h, 37.5 mg/kg i.p., read-out: L1210 Leukemia % T/C (median survival time)
  response vs control in vivo at 37.5 mg/kg: 132%

## O=C(O)c1cc(-c2ccc(Oc3ccc(F)cc3)cc2)nc2ccc(F)cc12 [Example 75]
[1]; Mus musculus, L1210, ip, 720 h, 150 mg/kg i.p., read-out: L1210 Leukemia % T/C (median survival time)
  response vs control in vivo at 150 mg/kg: 145%

## Cc1c(-c2ccc(-c3ccccc3)cc2)nc2cc(F)ccc2c1C(=O)O [Example 186]
[1]; Mus musculus, L1210, ip, 720 h, 45 mg/kg i.p., nonoptimal Q1DX9 instead of Q3DX9, read-out: L1210 Leukemia % T/C (median survival time)
  response vs control in vivo at 45 mg/kg: 123%

## Cc1c(-c2ccc(-c3ccccc3)cc2)nc2cccc(Cl)c2c1C(=O)O [Example 163]
[1]; Mus musculus, L1210, ip, 720 h, 43.8 mg/kg i.p., read-out: L1210 Leukemia % T/C (median survival time)
  response vs control in vivo at 43.8 mg/kg: 180%

## Cc1ccc2nc(-c3ccc(-c4ccccc4)cc3)c(C)c(C(=O)O)c2c1 [Example 104]
[2]
  in vitro HCT-15 ID50 (50 percent inhibition of number of doublings): 0.22 µg/mL
